From publication PMC4745691, “New therapeutic strategies in neuroblastoma: combined targeting of a novel tyrosine kinase inhibitor and liposomal siRNAs against ALK” (Oncotarget, 2015)

Assay: Tolerability in subcutaneous NB model (MTD, adverse effects, body weight)
Format: in vivo
Settings: 50 mg/kg BID oral gavage, NB-bearing mice
Description: In other set of experiments, Balb/c nude mice were xenografted with SH-SY5Y cells as earlier. […] Tumors were measured twice weekly using callipers, and volume was calculated using the formula: Length × Width^2 × 0.5. Body weight was also assessed twice weekly. The experiment was terminated after 3 weeks of treatment.

C[C@@H](Oc1cc(-c2cnn(C3CCNCC3)c2)cnc1N)c1c(Cl)ccc(F)c1Cl [crizotinib, Crizotinib]
mice weight over time: No signs of severe weight
